According to paper PMC4793533 (BMC obesity, 2016):
One block for each molecule: values may come before it.

Assays:
[1] = Pharmacokinetics of radioactivity in plasma and blood after a single oral dose of [9-14C]-oleic acid, with or without formoline L112 pre-treatment; type: in vivo, female Göttingen minipigs; conditions: untreated minipigs (group A), single oral 10 mg/kg [9-14C]-oleic acid
Protocol: The study consisted of two treatment groups, each consisting of six female Göttingen minipigs. Group A served as the untreated group (control) and group B was pre-treated with polyglucosamine as follows; the animals of group B were dosed with 2 tablets of 500 mg formoline […] (1 g formoline […] in total) followed by approximately 10 ml of water via a syringe. The 2 tablets of polyglucosamine were inserted into 2 gelatine capsules. The minipigs were trained to eat these capsules. Thereafter, animals of both groups were allowed to drink water ad libitum. […] One animal of the control group A was inadequately dosed and was omitted from the experiment. The dosing capsules were prepared the day before the dose administration based on the bodyweight determined shortly before dosing and stored under nitrogen and protected from light at 2-10 °C. Immediately following dosing all animals received approximately 10 ml of water via a syringe. After 15 min, animals were allowed to drink water and eat their morning meal. This meal was eaten within a few minutes. The animals were housed in stainless steel metabolism cages under test conditions, 48 h prior to the experimental start date (dosing). Urine and faeces was collected at ambient temperature at 24 h time intervals, starting at 2 days prior to dosing and ending at 144 h post-dose. At each collection period, the cage was rinsed with 100 mL demi-water. […] The cannula was rinsed with physiological saline after each blood sampling. After the last blood sampling of the day the cannula was filled with 3 % poly vinyl pyrrolidone (PVP) and heparin, and closed with a lid. Subsamples of whole blood were collected for analysis and the remaining blood was used for preparation of plasma by centrifugation for 10 min at 2000 g. At the end of the experiment, the cages were rinsed thoroughly with water/ethanol/Triton X-100 (100/100/1; v/v/v). The minipigs were intravenously anaesthetized via the catheter with 60 mg sodium-pentobarbital per kg bodyweight. Next, the animals were sacrificed by exsanguination from the carotid artery. At sacrifice, the complete liver and contents of the gastrointestinal tract were collected. Prior to analysis of radioactivity, the faeces, liver and contents of the gastrointestinal tract were homogenized using an ultrathurrax. Radioactivity in all samples was determined by liquid scintillation counting on a Tri-Carb 3100TR liquid scintillation counter using QuantaSmartTM software. All counts were converted to DPM using tSIE/AEC (transformed Spectral Index of external standards coupled to Automatic Efficiency Correction). Radioactivity in faeces, blood and liver tissue was determined by combustion analysis using a Packard Sample Oxidizer System 307. The CO2 formed was mixed with CarbosorbTM and PermafluorTM and measured by LSC. Kinetic analysis of radioactivity (blood/plasma) was performed using WinNonlin® 6.3 applying non-compartmental model analysis. The following kinetic parameters were calculated where the data allow: Cmax, Tmax, half-life (t1/2), the volume of distribution, clearance, the Area under the concentration-time curve (AUC) (or AUC0-n, AUC0-∞) and the Mean Residence Time (MRT). Statistical analysis was assessed by using Mann-Whitney U-test (non-parametric test) using the Brightstat.

[2] = Recovery of radioactivity in excreta (urine, faeces, cage wash), liver and gastrointestinal tract contents; type: in vivo, female Göttingen minipigs
Protocol: The study consisted of two treatment groups, each consisting of six female Göttingen minipigs. Group A served as the untreated group (control) and group B was pre-treated with polyglucosamine as follows; the animals of group B were dosed with 2 tablets of 500 mg formoline […] (1 g formoline […] in total) followed by approximately 10 ml of water via a syringe. The 2 tablets of polyglucosamine were inserted into 2 gelatine capsules. The minipigs were trained to eat these capsules. Thereafter, animals of both groups were allowed to drink water ad libitum. […] The dosing capsules were prepared the day before the dose administration based on the bodyweight determined shortly before dosing and stored under nitrogen and protected from light at 2-10 °C. Immediately following dosing all animals received approximately 10 ml of water via a syringe. After 15 min, animals were allowed to drink water and eat their morning meal. […] The animals were housed in stainless steel metabolism cages under test conditions, 48 h prior to the experimental start date (dosing). Urine and faeces was collected at ambient temperature at 24 h time intervals, starting at 2 days prior to dosing and ending at 144 h post-dose. At each collection period, the cage was rinsed with 100 mL demi-water. […] The cannula was rinsed with physiological saline after each blood sampling. After the last blood sampling of the day the cannula was filled with 3 % poly vinyl pyrrolidone (PVP) and heparin, and closed with a lid. Subsamples of whole blood were collected for analysis and the remaining blood was used for preparation of plasma by centrifugation for 10 min at 2000 g. At the end of the experiment, the cages were rinsed thoroughly with water/ethanol/Triton X-100 (100/100/1; v/v/v). The minipigs were intravenously anaesthetized via the catheter with 60 mg sodium-pentobarbital per kg bodyweight. Next, the animals were sacrificed by exsanguination from the carotid artery. At sacrifice, the complete liver and contents of the gastrointestinal tract were collected. Prior to analysis of radioactivity, the faeces, liver and contents of the gastrointestinal tract were homogenized using an ultrathurrax. Radioactivity in all samples was determined by liquid scintillation counting on a Tri-Carb 3100TR liquid scintillation counter using QuantaSmartTM software. All counts were converted to DPM using tSIE/AEC (transformed Spectral Index of external standards coupled to Automatic Efficiency Correction). Radioactivity in faeces, blood and liver tissue was determined by combustion analysis using a Packard Sample Oxidizer System 307. The CO2 formed was mixed with CarbosorbTM and PermafluorTM and measured by LSC.

[3] = cited from earlier work
[4] = untreated minipigs, not a mass-balance study
[5] = up to 144 h post-dose, group A untreated, mean ± SD

AUC(0-12h) ([1]; blood): 40.0 ± 4.8 µg·h/g | AUC(0-24h) ([1]; blood): 61.7 ± 13.1 µg·h/g | AUC(0-48h) ([1]; blood): 88.3 ± 19.0 µg·h/g | AUC(0-60h) ([1]; blood): 97.2 ± 20.6 µg·h/g | AUC(0-72h) ([1]; blood): 105 ± 22 µg·h/g | AUCall(0-144h) ([1]; blood): 139 ± 25 µg·h/g | Cl ([1]; blood): 48.4 ± 7.9 g/h/kg | Cmax ([9-14C]-oleic acid and/or its metabolites) ([1]; blood): 8.5 ± 2.2 µg/g | MRTlast ([1]; blood): 43.6 ± 3.1 h | Tmax ([9-14C]-oleic acid and/or its metabolites) ([1]; blood): 4 ± 3 h | Vz ([1]; blood): 8860 ± 1848 g/kg | AUC(0-12h) ([1]; plasma): 65.6 ± 6.0 µg·h/g | AUC(0-24h) ([1]; plasma): 98.4 ± 17.2 µg·h/g | AUC(0-48h) ([1]; plasma): 136 ± 28 µg·h/g | AUC(0-60h) ([1]; plasma): 148 ± 31 µg·h/g | AUC(0-72h) ([1]; plasma): 157 ± 32 µg·h/g | AUCall(0-144h) ([1]; plasma): 190 ± 38 µg·h/g | Cl ([1]; plasma): 40.7 ± 5.5 g/h/kg | Cmax ([9-14C]-oleic acid and/or its metabolites) ([1]; plasma): 14.1 ± 3.6 µg/g | MRTlast ([1]; plasma): 35.9 ± 1.8 h | Tmax ([9-14C]-oleic acid and/or its metabolites) ([1]; plasma): 4 ± 3 h | Vz ([1]; plasma): 7008 ± 2962 g/kg | Recovery of radioactivity in urine ([2]; 0–24 h, group A untreated, mean ± SD): 0.79 ± 0.05 % of the applied dose | Recovery of radioactivity in urine ([2]; 24–48 h, group A untreated, mean ± SD): 0.28 ± 0.10 % of the applied dose | Recovery of radioactivity in urine ([2]; 48–72 h, group A untreated, mean ± SD): 0.09 ± 0.08 % of the applied dose | Recovery of radioactivity in urine ([2]; 72–96 h, group A untreated, mean ± SD): 0.08 ± 0.05 % of the applied dose | Recovery of radioactivity in urine ([2]; 96–120 h, group A untreated, mean ± SD): 0.05 ± 0.03 % of the applied dose | Recovery of radioactivity in urine ([2]; 120–144 h, group A untreated, mean ± SD): 0.03 ± 0.00 % of the applied dose | Recovery of radioactivity in urine ([2]; -24–0 h (pre-dose), group A untreated, mean ± SD): 0.01 ± 0.00 % of the applied dose | Recovery of radioactivity in urine ([2]; -48–24 h (pre-dose), group A untreated, mean ± SD): 0.00 ± 0.01 % of the applied dose | Recovery of radioactivity in Cagewash ([2]; group A untreated, mean ± SD): 0.07 ± 0.07 % of the applied dose | Recovery of radioactivity in GI-tract contents at sacrifice (144 h post-dose) ([2]; group A untreated, mean ± SD): 0.08 ± 0.04 % of the applied dose | Recovery of radioactivity in Liver at sacrifice (144 h post-dose) ([2]; group A untreated, mean ± SD): 0.37 ± 0.07 % of the applied dose | Total excreted (sum urine, faeces, cagewash) ([2]; group A untreated, mean ± SD): 7.90 ± 3.13 % of the applied dose | Overall recovery of the dosed amount of radioactivity (based on the AUC0-12h) [2, 4]: 34.7% | Overall recovery of the dosed amount of radioactivity (based on the Cmax) [2, 4]: 13.9% | Recovery of radioactivity in faeces, Total [2, 5]: 6.51 ± 2.88 % of the applied dose | Recovery of radioactivity in urine, Total [2, 5]: 1.33 ± 0.20 % of the applied dose
SMILES: CCCCCCCC/C=[14CH]\CCCCCCCC(=O)O [[9-^14C]-oleic acid]

SMILES: CCCCCCCC/C=C\CCCCCCCC(=O)O [oleic acid]
Excreted in the faeces ([3]; 31 test persons with normal fat assimilation, oral doses, radioactively labelled, after 6 days): less than 10% | Absorption after oral administration ([3]; untreated subjects): absorbed practically completely
